Test results taken from patent US9758485B2, “Compounds for controlling arthropods” (priority 2013, dated 2017).
Where two headings read alike, the source gives them in different places.

Tests used:
[1] = logP determination by HPLC on a reversed-phase column (C18), EEC Directive 79/831 Annex V.A8; assay type: physicochemical
[2] = test system: Phaedon cochleariae; test: Phaedon cochleariae - spray test; assay type: in vivo; details: Phaedon cochleariae, foliar, 168 h; application rate 100 g/ha; larvae on Chinese cabbage leaf discs; after 7 days; read-out: efficacy
Experimental: Phaedon cochleariae—Spray Test
Solvent: 78.0 parts by weight of acetone and 1.5 parts by weight of dimethylformamide
Emulsifier: alkylaryl polyglycol ether
To produce an appropriate active ingredient formulation, 1 part by weight of active ingredient is dissolved using the specified parts by weight of solvent and made up with water containing an emulsifier concentration of 1000 ppm until the desired concentration is attained. To produce further test concentrations, the preparation is diluted with emulsifier-containing water.
Discs of Chinese cabbage leaves (Brassica pekinensis) are sprayed with an active ingredient formulation of the desired concentration and, after drying, populated with larvae of the mustard beetle (Phaedon cochleariae).
After 7 days, efficacy in % is determined. 100% means that all the beetle larvae have been killed; 0% means that no beetle larvae have been killed.

[3] = test system: Ctenocephalides felis; test: Ctenocephalides felis - in vitro contact tests with adult cat fleas; assay type: in vivo; details: application rate 5 μg/cm^2 (=500 g/ha), after 48 h (dead or moribund)
How it was run: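 Efficacy, as share of dead or moribund adult Ctenocephalides felis, read 48 h after placing 5-10 fleas in tubes coated by acetone solution (5 μg/cm^2 at 900 ppm). Incubation horizontal at room temperature, ambient humidity; immobile or uncoordinated fleas scored.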

In the case of `Cc1cc(C(F)(C(F)(F)F)C(F)(F)F)cc(C)c1-n1cc(-c2ccc(Cl)c(C(=O)NC3CC3)c2)cn1` [I-T3-1, 2-chloro-N-cyclopropyl-5-[1-[2,6-dimethyl-4-[1,2,2,2-tetrafluoro-1-(trifluoromethyl)ethyl]phenyl]pyrazol-4-yl]benzamide], the chromatographic logP ([1]; reversed-phase HPLC column (C18), HPLC, reversed-phase C18, acetonitrile/water with formic acid, 55° C., read-out: logP) is reported as 4.36, the chromatographic logP ([1]; reversed-phase HPLC column (C18), HPLC-MS method a), Table I-T3; read-out: logP^a)) is reported as 4.4 and the chromatographic logP ([1]; reversed-phase HPLC column (C18), HPLC-MS method a); read-out: logP^a)) is reported as 4.4. It also gave a pest or weed control at 100 g/ha [2] of 100% and an efficacy [3] of 100%.
